# Experiments:
# [1] = Lipophilicity, log P at pH 7.4; type: physicochemical; conditions: buffer
# [2] = biological target: Beta-1 adrenergic receptor (Homo sapiens, UniProt P08588); experiment: Binding affinity to beta-1 adrenergic receptor
# [3] = biological target: Beta-2 adrenergic receptor (Homo sapiens, UniProt P07550); experiment: Binding affinity to beta2 adrenergic receptor
# Brain [4] = experiment: Biodistribution in Sprague-Dawley rat rest of brain at 70 uCi, iv after 60 mins; type: ADME, organism-based; conditions: in vivo, 1 h
# [5] = Metabolic stability in Sprague-Dawley rat plasma at 70 uCi, iv after 5 mins; type: ADME, organism-based; conditions: read-out: Stability
# Heart [6] = experiment: Biodistribution in Sprague-Dawley rat heart at 70 uCi, iv after 60 mins; type: ADME, organism-based; conditions: in vivo, 1 h
# Thalamus [7] = experiment: Biodistribution in Sprague-Dawley rat thalamus at 70 uCi, iv after 15 mins; type: ADME, organism-based; conditions: in vivo, 0.25 h
# Cortex [8] = experiment: Biodistribution in Sprague-Dawley rat rest of cortex at 70 uCi, iv after 5 mins; type: ADME, organism-based; conditions: in vivo
# Heart [9] = experiment: Biodistribution in Sprague-Dawley rat heart at 70 uCi, iv after 5 mins; type: ADME, organism-based; conditions: in vivo
# [10] = Biodistribution in Sprague-Dawley rat frontal cortex at 70 uCi, iv after 60 mins; type: ADME, organism-based; conditions: in vivo, 1 h
# Hippocampus [11] = experiment: Biodistribution in Sprague-Dawley rat hippocampus at 70 uCi, iv after 30 mins; type: ADME, organism-based; conditions: in vivo, 0.5 h
# Bone [12] = experiment: Biodistribution in Sprague-Dawley rat bone at 70 uCi, iv after 60 mins; type: ADME, organism-based, Bone element; conditions: in vivo, 1 h
# Striatum [13] = experiment: Biodistribution in Sprague-Dawley rat striatum at 70 uCi, iv after 5 mins; type: ADME, organism-based; conditions: in vivo
# Plasma [14] = experiment: Biodistribution in Sprague-Dawley rat plasma at 70 uCi, iv after 60 mins; type: ADME, organism-based; conditions: in vivo, 1 h
# Bone [15] = experiment: Biodistribution in Sprague-Dawley rat bone at 70 uCi, iv after 5 mins; type: ADME, organism-based, Bone element; conditions: in vivo
# Striatum [16] = experiment: Biodistribution in Sprague-Dawley rat striatum at 70 uCi, iv after 60 mins; type: ADME, organism-based; conditions: in vivo, 1 h
# [17] = Metabolic stability in Sprague-Dawley rat plasma at 70 uCi, iv after 30 mins; type: ADME, organism-based; conditions: read-out: Stability
# Hypothalamus [18] = experiment: Biodistribution in Sprague-Dawley rat hypothalamus at 70 uCi, iv after 30 mins; type: ADME, organism-based; conditions: in vivo, 0.5 h
# Hypothalamus [19] = experiment: Biodistribution in Sprague-Dawley rat hypothalamus at 70 uCi, iv after 60 mins; type: ADME, organism-based; conditions: in vivo, 1 h
# Brain [20] = experiment: Biodistribution in Sprague-Dawley rat rest of brain at 70 uCi, iv after 5 mins; type: ADME, organism-based; conditions: in vivo
# Hippocampus [21] = experiment: Biodistribution in Sprague-Dawley rat hippocampus at 70 uCi, iv after 60 mins; type: ADME, organism-based; conditions: in vivo, 1 h
# Brain [22] = experiment: Biodistribution in Sprague-Dawley rat rest of brain at 70 uCi, iv after 15 mins; type: ADME, organism-based; conditions: in vivo, 0.25 h
# Cerebellum [23] = experiment: Biodistribution in Sprague-Dawley rat cerebellum at 70 uCi, iv after 60 mins; type: ADME, organism-based; conditions: in vivo, 1 h
# [24] = Biodistribution in Sprague-Dawley rat frontal cortex at 70 uCi, iv after 30 mins; type: ADME, organism-based; conditions: in vivo, 0.5 h
# Cerebellum [25] = experiment: Biodistribution in Sprague-Dawley rat cerebellum at 70 uCi, iv after 15 mins; type: ADME, organism-based; conditions: in vivo, 0.25 h
# Hippocampus [26] = experiment: Biodistribution in Sprague-Dawley rat hippocampus at 70 uCi, iv after 15 mins; type: ADME, organism-based; conditions: in vivo, 0.25 h
# Striatum [27] = experiment: Biodistribution in Sprague-Dawley rat striatum at 70 uCi, iv after 30 mins; type: ADME, organism-based; conditions: in vivo, 0.5 h
# Cortex [28] = experiment: Biodistribution in Sprague-Dawley rat rest of cortex at 70 uCi, iv after 15 mins; type: ADME, organism-based; conditions: in vivo, 0.25 h
# Thalamus [29] = experiment: Biodistribution in Sprague-Dawley rat thalamus at 70 uCi, iv after 30 mins; type: ADME, organism-based; conditions: in vivo, 0.5 h
# Thalamus [30] = experiment: Biodistribution in Sprague-Dawley rat thalamus at 70 uCi, iv after 60 mins; type: ADME, organism-based; conditions: in vivo, 1 h
# Heart [31] = experiment: Biodistribution in Sprague-Dawley rat heart at 70 uCi, iv after 30 mins; type: ADME, organism-based; conditions: in vivo, 0.5 h
# Bone [32] = experiment: Biodistribution in Sprague-Dawley rat bone at 70 uCi, iv after 15 mins; type: ADME, organism-based, Bone element; conditions: in vivo, 0.25 h
# [33] = Biodistribution in Sprague-Dawley rat frontal cortex at 70 uCi, iv after 15 mins; type: ADME, organism-based; conditions: in vivo, 0.25 h
# Plasma [34] = experiment: Biodistribution in Sprague-Dawley rat plasma at 70 uCi, iv after 30 mins; type: ADME, organism-based; conditions: in vivo, 0.5 h
# Brain [35] = experiment: Biodistribution in Sprague-Dawley rat rest of brain at 70 uCi, iv after 30 mins; type: ADME, organism-based; conditions: in vivo, 0.5 h
# Hypothalamus [36] = experiment: Biodistribution in Sprague-Dawley rat hypothalamus at 70 uCi, iv after 15 mins; type: ADME, organism-based; conditions: in vivo, 0.25 h
# Hippocampus [37] = experiment: Biodistribution in Sprague-Dawley rat hippocampus at 70 uCi, iv after 5 mins; type: ADME, organism-based; conditions: in vivo
# Cortex [38] = experiment: Biodistribution in Sprague-Dawley rat rest of cortex at 70 uCi, iv after 60 mins; type: ADME, organism-based; conditions: in vivo, 1 h
# [39] = Metabolic stability in Sprague-Dawley rat plasma at 70 uCi, iv after 15 mins; type: ADME, organism-based; conditions: read-out: Stability
# Plasma [40] = experiment: Biodistribution in Sprague-Dawley rat plasma at 70 uCi, iv after 15 mins; type: ADME, organism-based; conditions: in vivo, 0.25 h
# Plasma [41] = experiment: Biodistribution in Sprague-Dawley rat plasma at 70 uCi, iv after 5 mins; type: ADME, organism-based; conditions: in vivo
# Heart [42] = experiment: Biodistribution in Sprague-Dawley rat heart at 70 uCi, iv after 15 mins; type: ADME, organism-based; conditions: in vivo, 0.25 h
# Striatum [43] = experiment: Biodistribution in Sprague-Dawley rat striatum at 70 uCi, iv after 15 mins; type: ADME, organism-based; conditions: in vivo, 0.25 h
# Bone [44] = experiment: Biodistribution in Sprague-Dawley rat bone at 70 uCi, iv after 30 mins; type: ADME, organism-based, Bone element; conditions: in vivo, 0.5 h
# [45] = Metabolic stability in Sprague-Dawley rat plasma at 70 uCi, iv after 60 mins; type: ADME, organism-based; conditions: read-out: Stability
# Thalamus [46] = experiment: Biodistribution in Sprague-Dawley rat thalamus at 70 uCi, iv after 5 mins; type: ADME, organism-based; conditions: in vivo
# Cortex [47] = experiment: Biodistribution in Sprague-Dawley rat rest of cortex at 70 uCi, iv after 30 mins; type: ADME, organism-based; conditions: in vivo, 0.5 h
# [48] = Biodistribution in Sprague-Dawley rat frontal cortex at 70 uCi, iv after 5 mins; type: ADME, organism-based; conditions: in vivo
# Cerebellum [49] = experiment: Biodistribution in Sprague-Dawley rat cerebellum at 70 uCi, iv after 5 mins; type: ADME, organism-based; conditions: in vivo
# Hypothalamus [50] = experiment: Biodistribution in Sprague-Dawley rat hypothalamus at 70 uCi, iv after 5 mins; type: ADME, organism-based; conditions: in vivo
# Cerebellum [51] = experiment: Biodistribution in Sprague-Dawley rat cerebellum at 70 uCi, iv after 30 mins; type: ADME, organism-based; conditions: in vivo, 0.5 h
# Chain of Beta-1 adrenergic receptor (P08588 whole entry): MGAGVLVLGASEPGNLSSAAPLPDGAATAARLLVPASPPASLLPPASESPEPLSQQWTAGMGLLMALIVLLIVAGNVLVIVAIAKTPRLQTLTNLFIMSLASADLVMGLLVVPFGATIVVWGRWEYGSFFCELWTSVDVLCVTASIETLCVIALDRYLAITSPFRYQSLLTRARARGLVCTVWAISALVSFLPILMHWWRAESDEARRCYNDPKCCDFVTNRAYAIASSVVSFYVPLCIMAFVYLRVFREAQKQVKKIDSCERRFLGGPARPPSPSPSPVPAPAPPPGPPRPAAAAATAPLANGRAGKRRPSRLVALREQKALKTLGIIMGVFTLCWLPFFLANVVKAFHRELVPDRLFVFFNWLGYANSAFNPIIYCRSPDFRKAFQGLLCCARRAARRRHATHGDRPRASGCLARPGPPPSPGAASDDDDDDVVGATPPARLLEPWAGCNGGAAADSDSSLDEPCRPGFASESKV
# Chain of Beta-2 adrenergic receptor (P07550 whole entry): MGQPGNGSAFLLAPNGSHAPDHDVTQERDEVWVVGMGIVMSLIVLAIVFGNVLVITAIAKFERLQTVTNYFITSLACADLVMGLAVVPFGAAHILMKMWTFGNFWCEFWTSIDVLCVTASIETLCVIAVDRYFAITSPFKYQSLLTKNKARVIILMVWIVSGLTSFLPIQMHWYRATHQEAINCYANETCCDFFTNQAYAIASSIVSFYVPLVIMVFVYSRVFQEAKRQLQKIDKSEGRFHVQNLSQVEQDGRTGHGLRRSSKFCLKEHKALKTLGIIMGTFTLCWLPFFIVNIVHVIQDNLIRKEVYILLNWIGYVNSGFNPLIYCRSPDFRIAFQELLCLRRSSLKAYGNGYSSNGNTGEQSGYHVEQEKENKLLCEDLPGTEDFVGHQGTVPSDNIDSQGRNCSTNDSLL
compound,measurement,setting,value
Cc1cccc(OC[11C@@H](O)CNC(C)C)c1,logD,[1],0.2
Cc1cccc(OC[C@@H](O)CNC(C)C)c1 [(S)-TOLIPROLOL],Kd,[2],0.38 nM
same,Kd,[3],1.2 nM
CC(C)NCC(O)COc1cccc2[nH]c3ccccc3c12 (stereo not drawn) [CARAZOLOL],logD,[1],1.36
Cc1cccc(OC[C@@H](O)CNC(C)C[18F])c1 (stereo partly drawn),Drug uptake,Brain [4],0.1 % ID/g
same,remaining at 5 min,[5],59.2%
same,Drug uptake,Heart [6],0.06 % ID/g
same,Drug uptake,Thalamus [7],0.65 % ID/g
same,Drug uptake,Cortex [8],1.12 % ID/g
same,Drug uptake,Heart [9],0.59 % ID/g
same,Drug uptake,[10],0.12 % ID/g
same,Drug uptake,Hippocampus [11],0.31 % ID/g
same,Drug uptake,Bone [12],0.18 % ID/g
same,Drug uptake,Striatum [13],0.97 % ID/g
same,Drug uptake,Plasma [14],0.08 % ID/g
same,Drug uptake,Bone [15],0.18 % ID/g
same,Drug uptake,Striatum [16],0.11 % ID/g
same,remaining at 0.5 h,[17],16.4%
same,Drug uptake,Hypothalamus [18],0.22 % ID/g
same,Drug uptake,Hypothalamus [19],0.09 % ID/g
same,Drug uptake,Brain [20],0.84 % ID/g
same,Drug uptake,Hippocampus [21],0.12 % ID/g
same,Drug uptake,Brain [22],0.5 % ID/g
same,Drug uptake,Cerebellum [23],0.08 % ID/g
same,Drug uptake,[24],0.3 % ID/g
same,Drug uptake,Cerebellum [25],0.46 % ID/g
same,Drug uptake,Hippocampus [26],0.63 % ID/g
same,Drug uptake,Striatum [27],0.27 % ID/g
same,Drug uptake,Cortex [28],0.62 % ID/g
same,Drug uptake,Thalamus [29],0.29 % ID/g
same,Drug uptake,Thalamus [30],0.11 % ID/g
same,Drug uptake,Heart [31],0.15 % ID/g
same,Drug uptake,Bone [32],0.21 % ID/g
same,Drug uptake,[33],0.67 % ID/g
same,Drug uptake,Plasma [34],0.13 % ID/g
same,Drug uptake,Brain [35],0.24 % ID/g
same,Drug uptake,Hypothalamus [36],0.5 % ID/g
same,Drug uptake,Hippocampus [37],0.91 % ID/g
same,Drug uptake,Cortex [38],0.11 % ID/g
same,remaining at 0.25 h,[39],28.6%
same,Drug uptake,Plasma [40],0.13 % ID/g
same,Drug uptake,Plasma [41],0.16 % ID/g
same,Drug uptake,Heart [42],0.26 % ID/g
same,Drug uptake,Striatum [43],0.59 % ID/g
same,Drug uptake,Bone [44],0.18 % ID/g
same,remaining at 1 h,[45],11.9%
same,Drug uptake,Thalamus [46],1.03 % ID/g
same,Drug uptake,Cortex [47],0.29 % ID/g
same,Drug uptake,[48],1.21 % ID/g
same,Drug uptake,Cerebellum [49],0.75 % ID/g
same,logD,[1],1.68
same,Drug uptake,Hypothalamus [50],0.77 % ID/g
same,Drug uptake,Cerebellum [51],0.21 % ID/g
Cc1cccc(OC[C@H](O)CNC(C)C[18F])c1 (stereo partly drawn),Drug uptake,Brain [4],0.1 % ID/g
same,remaining at 5 min,[5],61.9%
same,Drug uptake,Heart [6],0.07 % ID/g
same,Drug uptake,Thalamus [7],0.62 % ID/g
same,Drug uptake,Cortex [8],1.12 % ID/g
same,Drug uptake,Heart [9],0.51 % ID/g
same,Drug uptake,[10],0.12 % ID/g
same,Drug uptake,Hippocampus [11],0.31 % ID/g
same,Drug uptake,Bone [12],0.25 % ID/g
same,Drug uptake,Striatum [13],1.04 % ID/g
same,Drug uptake,Plasma [14],0.07 % ID/g
same,Drug uptake,Bone [15],0.3 % ID/g
same,Drug uptake,Striatum [16],0.11 % ID/g
same,remaining at 0.5 h,[17],12.6%
same,Drug uptake,Hypothalamus [18],0.23 % ID/g
same,Drug uptake,Hypothalamus [19],0.09 % ID/g
same,Drug uptake,Brain [20],0.88 % ID/g
same,Drug uptake,Hippocampus [21],0.12 % ID/g
same,Drug uptake,Brain [22],0.47 % ID/g
same,Drug uptake,Cerebellum [23],0.08 % ID/g
same,Drug uptake,[24],0.29 % ID/g
same,Drug uptake,Cerebellum [25],0.43 % ID/g
same,Drug uptake,Hippocampus [26],0.6 % ID/g
same,Drug uptake,Striatum [27],0.26 % ID/g
same,Drug uptake,Cortex [28],0.55 % ID/g
same,Drug uptake,Thalamus [29],0.3 % ID/g
same,Drug uptake,Thalamus [30],0.12 % ID/g
same,Drug uptake,Heart [31],0.15 % ID/g
same,Drug uptake,Bone [32],0.22 % ID/g
same,Drug uptake,[33],0.59 % ID/g
same,Drug uptake,Plasma [34],0.13 % ID/g
same,Drug uptake,Brain [35],0.25 % ID/g
same,Drug uptake,Hypothalamus [36],0.46 % ID/g
same,Drug uptake,Hippocampus [37],1.01 % ID/g
same,Drug uptake,Cortex [38],0.11 % ID/g
same,remaining at 0.25 h,[39],25.5%
same,Drug uptake,Plasma [40],0.13 % ID/g
same,Drug uptake,Plasma [41],0.16 % ID/g
same,Drug uptake,Heart [42],0.26 % ID/g
same,Drug uptake,Striatum [43],0.54 % ID/g
same,Drug uptake,Bone [44],0.3 % ID/g
same,remaining at 1 h,[45],7.7%
same,Drug uptake,Thalamus [46],1.19 % ID/g
same,Drug uptake,Cortex [47],0.29 % ID/g
same,Drug uptake,[48],1.3 % ID/g
same,Drug uptake,Cerebellum [49],0.82 % ID/g
same,logD,[1],1.79
same,Drug uptake,Hypothalamus [50],0.92 % ID/g
same,Drug uptake,Cerebellum [51],0.23 % ID/g
CC(CF)NCC(O)COc1cccc2[nH]c3ccccc3c12 (stereo not drawn) [FLUOROCARAZOLOL],logD,[1],2.2

# — ChEMBL document CHEMBL1156542, “Facile radiosynthesis of fluorine-18 labeled beta-blockers. Synthesis, radiolabeling, and ex vivo biodistribution of [18F]-(2S and 2R)-1-(1-fluoropropan-2-ylamino)-3-(m-tolyloxy)propan-2-ol” (J Med Chem, 2008)
